What is called solubility (thermodynamic) is the concentration in solution at equilibrium with solid.

The subject of data set [1] is P. falciparum NF54 strain. Nature of the data set: P. falciparum NF54 [3H]hypoxanthine incorporation assay, 72 h, 0.5% Albumax. Format: cell-based.
Data set [2] is described as follows: Thermodynamic aqueous solubility (shake-flask, PBS-10% DMSO). It is filed as physicochemical. To be noted: PBS with 10% DMSO, aqueous with cosolvent or surfactant or cyclodextrin, PBS pH 7.4, 10% DMSO, 20 °C, read-out: Thermodynamic aq. Solubility in PBS-10% DMSO. How it is done:
Thermodynamic Aqueous Solubility: The shake-flask method enabled us to determine the apparent thermodynamic solubilities of the DMSO stock solutions of the compounds. […] The mixture was equilibrated at 20 °C for 24 h. After centrifugation, the supernatant was injected into an HPLC column coupled to an LC-MS apparatus (with UV–Vis detection) in order to determine the compound concentration. […] These solutions were also injected in order to calibrate the concentration determination process. […] Measurements were performed in duplicate.

The nature of data set [3]: Chromatographic Hydrophobicity Index (CHI) by HPLC. It is filed as physicochemical. To be noted: for CHI: Chromatographic Hydrophobicity Index, lipophilicity index; for chromatographic logD: pH 7.4, read-out: log D7.4. How it is done: Determination of CHI values: Compound lipophilicity influences permeability and propensity to nonspecific binding to plasma proteins. Although precise, the classical “shake flask” method is not always appropriate for the determination of high hydrophobicity, which can be alternatively measured using the Chromatographic Hydrophobicity Index method. This HPLC-based technique leads to rapid and cheap estimates of partition coefficients. […] A measure of 5 μL was injected onto the HPLC (with UV–Vis detection). […] The measurements were performed in duplicate. […] The CHI is approximately equal to the proportion of acetonitrile in the mobile phase when the compound is eluted from the column.

Data set [4] deals with P. falciparum NF54 strain. The note with it: cited from earlier work.
For data set [5], the system named is rat myoblast cell line (L6 cells). To be noted: cited from earlier work.
Data set [6] concerns P. falciparum NF54 strain. Nature of the data set: P. falciparum NF54 24 h assay (species shift assay). It is filed as cell-based.
The test system of data set [7] is P. berghei (GFP ANKA malaria strain). Nature of the data set: In vitro efficacy testing with P. berghei, 24 h (species shift assay). It is filed as cell-based.
Data set [8] deals with P. berghei GFP ANKA malaria strain. As to the kind of experiment: Drug assay in vivo in P. berghei-infected mice. The note with it: p.o. 4 × 50 mg/kg; for Parasitized RBC over 100: individual mice; for Parasitized RBC over 100 / Parasitized RBC over 100, Avg. / % of Control / Activity (%): day 4; for % of Control: parasitemia; for Activity (%): reduction of parasitemia versus control.

The test system of data set [9] is P. falciparum NF54 strain. As to the kind of experiment: Serum shift assay, P. falciparum NF54 72 h in 50% human serum. To be noted: for Serum Shift: 50% human serum versus 0.5% Albumax; for IC50: read-out: IC50 NF54 72 h, 50% Human Serum.
The subject of a further data set is P. falciparum strain Dd2. On the set-up: method as in doi:10.1002/ejoc.201600144. The note with it: multi-resistant P. falciparum strain Dd2 ref 12; cited from earlier work.
Setting [10] is: Plasmodium falciparum, NF54, as stated in text, read-out: IC50 against P. falciparum NF54.
The mark [11] stands for this setting: Plasmodium falciparum, NF54, 72 h, read-out: IC50 NF54 72 h, 0.5% Albumax, Table 5B, 0.5% Albumax.
The mark [12] stands for this setting: Plasmodium falciparum, NF54, 72 h, read-out: IC50 Pf NF54, 72 h, Table 5A, species shift experiment.
[13] abbreviates: Plasmodium falciparum, NF54, read-out: IC50 Pf NF54, 24 h assay.
Where [14] appears, read: Plasmodium berghei, read-out: IC50 Pb, P. berghei, 24 h assay.
Setting [15] is: Plasmodium falciparum, NF54, 72 h.

Values after ≈ are worked out from the molar mass of the structure shown. Values joined by “and” are separate entries in the source; they are usually repeats but may differ in a detail not shown here. Equal entries are not always repeated. Where two headings read alike, the source gives them in different places. Some results are limits rather than exact numbers.

For `CC1=C(Cc2ccc(C#N)cc2)C(=O)c2ccccc2C1=O` [A-b-10], the IC50 in data set [1] (setting [10]) was > 200 nM; in [4] (grey line ref 8) it was 374 nM. Further, the thermodynamic solubility at 24 h in data set [2] was determined as 0.82 ± 0.01 µM (≈ 0.236 µg/mL). Further, the CHI in [3] came out at 97. The chromatographic logD in [3] amounted to 3.75. Moreover, in data set [5] (grey line ref 8), the Tox/L6 is 112.5 µM.

Regarding `CC1=C(Cc2ccc(C(F)(F)F)cc2)C(=O)c2ccc(F)cc2C1=O` [Cpnd 7-F-PD], the IC50 in [1] (setting [11]) came out at 89 nM; in data set [1] (setting [12]) it was 93 nM; in data set [6] (setting [13]) it was 157 nM; in [7] (setting [14]), 138 nM; in data set [9] (setting [15]) it was 377 nM. For the same compound, in [8] (50 mg/kg), the “Parasitized RBC over 100” value is 64.7 and 69.0 and 62.2. In addition, in data set [8], the “Avg. Mouse Survival” value is recorded as 4.0 days. In [8], the “Parasitized RBC over 100, Avg.” value is recorded as 65.30. The “% of Control” value in data set [8] is given as 110.87%. Moreover, the “Activity (%)” value in [8] is reported as −10.87%. Moreover, in [2], the solubility (thermodynamic) at 24 h was 0.59 ± 0.01 µM (≈ 0.205 µg/mL). The “Serum Shift” value in [9] was found to be 4.2.

Consider `COc1ccc(CC2=C(C)C(=O)c3ccccc3C2=O)cc1` [A-b-16], for which, in data set [2], the solubility (thermodynamic) at 24 h was determined as 1.07 ± 0.02 µM (≈ 0.313 µg/mL). For the same compound, in data set [3], the CHI was found to be 106 and the chromatographic logD worked out at 4.22.

Regarding `CC1=C(Cc2cccc(C(F)(F)F)c2)C(=O)c2ccccc2C1=O` [B-b-1], the results for the IC50 in data set [1] (setting [10]) and in data set [4] (grey line ref 9) were < 100 nM and 62 nM, respectively. In data set [5] (grey line ref 9), the Tox/L6 is listed as 57.1 µM.

Turning to `CC1=C(Cc2ccccc2C(F)(F)F)C(=O)c2ccccc2C1=O` [B-b-2], the IC50 is < 100 nM in data set [1] (setting [10]) and 26 nM in [4] (grey line ref 9). The Tox/L6 in data set [5] (grey line ref 9) was 249.8 µM.

Consider `CC1=C(Cc2c(F)c(F)c(F)c(F)c2F)C(=O)c2ccccc2C1=O` [A-b-47], for which the IC50 in data set [1] (setting [11]) was 81 nM; in data set [1] (setting [12]), 91 nM; in data set [1] (setting [10]), < 100 nM; in data set [6] (setting [13]), 184 nM; in data set [7] (setting [14]) it was 265 nM; in data set [4] (grey line ref 9), 60 nM. For the same compound, in [9] (setting [15]), the IC50 is 324 nM. In addition, the “Parasitized RBC over 100” value in data set [8] (50 mg/kg) is 65.4 and 62.4 and 72.5. The “Avg. Mouse Survival” value in data set [8] came to 4.0 days. Moreover, the “Parasitized RBC over 100, Avg.” value in data set [8] turned out to be 66.77. Further, in data set [8], the “% of Control” value amounted to 113.36%. Further, the “Activity (%)” value in data set [8] is on record as −13.36%. Further, in data set [2], the thermodynamic solubility at 24 h amounted to 0.33 ± 0.01 µM (≈ 0.116 µg/mL). The CHI in data set [3] turned out to be 115. The chromatographic logD in data set [3] was 4.67. Further, the Tox/L6 in [5] (grey line ref 9) is recorded as 161.0 µM. The “Serum Shift” value in data set [9] is listed as 4.0.

For the compound `CC1=C(Cc2ccc(F)c(C(F)(F)F)c2)C(=O)c2ccccc2C1=O` [A-b-9, 4′-fluoro-3′-trifluoromethyl-benzylmenadione], the IC50 was 77 nM in data set [1] (Plasmodium falciparum, NF54, 72 h, P. falciparum NF54, 72 h, read-out: IC50); 59 nM in data set [1] (setting [11]); 62 nM in [1] (setting [12]); < 100 nM in data set [1] (setting [10]); 143 nM in data set [6] (setting [13]); 149 nM in data set [7] (setting [14]). For the same compound, in data set [9] (setting [15]), the IC50 turned out to be 355 nM. The “Parasitized RBC over 100” value in data set [8] (50 mg/kg) was 70.3 and 49.1 and 52.4. Moreover, the “Avg. Mouse Survival” value in [8] turned out to be 4.0 days. The “Parasitized RBC over 100, Avg.” value in [8] was determined as 57.27. Moreover, the “% of Control” value in data set [8] is given as 97.23%. In addition, the “Activity (%)” value in data set [8] came to 2.77%. Also, in data set [2], the solubility (thermodynamic) at 24 h stood at 0.67 ± 0.01 µM (≈ 0.233 µg/mL). Further, the “Serum Shift” value in data set [9] worked out at 6.1.

Turning to `O=C1C(O)=C([C@H]2CC[C@H](c3ccc(Cl)cc3)CC2)C(=O)c2ccccc21` [atovaquone, reference compound], the solubility (thermodynamic) at 24 h in data set [2] came out at 1.55 ± 0.04 µM (≈ 0.569 µg/mL).

On to `CCN(CC)CCCC(C)Nc1ccnc2cc(Cl)ccc12` (centres unmarked) [CQ, reference compound], for which the IC50 is 5 nM in data set [1] (read-out: IC50 NF54 72 h, 0.5% Albumax, Table 5B, 0.5% Albumax); 11 nM in data set [1] (read-out: IC50 Pf NF54, 72 h, Table 5A, species shift experiment); 4.9 nM in data set [6] (read-out: IC50 Pf NF54, 24 h, 24 h assay); 16 nM in data set [7] (read-out: IC50 Pb, 24 h, P. berghei, 24 h assay); 6.6 nM in [9].

With `CC1=C(Cc2ccc([N+](=O)[O-])c(F)c2)C(=O)c2ccccc2C1=O` [B-b-32], the IC50 in [4] (grey line ref 9) is 598 nM. For the same compound, the Tox/L6 in [5] (grey line ref 9) was 189.2 µM.

As for `COc1cc(CC2=C(C)C(=O)c3ccccc3C2=O)cc(OC)c1` [B-b-35], the results for the IC50 in data set [1] (setting [10]) and in [4] (grey line ref 9) were < 100 nM and 52 nM, respectively. Also, the thermodynamic solubility at 24 h in data set [2] came out at 0.75 ± 0.14 µM (≈ 0.242 µg/mL). For the same compound, the CHI in [3] is given as 107. Further, the chromatographic logD in [3] stood at 4.27. The Tox/L6 in data set [5] (grey line ref 9) is reported as 70.3 µM.

In the case of `COc1ccc(OC)c(CC2=C(C)C(=O)c3ccccc3C2=O)c1` [A-b-26], the thermodynamic solubility at 24 h in data set [2] was determined as 0.59 ± 0.01 µM (≈ 0.19 µg/mL). In data set [3], the CHI amounted to 107 and the chromatographic logD came out at 4.26. Besides, the IC50 in data set [4] (grey line ref 9) was 67 nM. For the same compound, the Tox/L6 in [5] (grey line ref 9) is 158.5 µM.

For `CC1=C(Cc2ccc(C(F)(F)F)cc2)C(=O)c2cc(F)ccc2C1=O` [Cpnd 6-F-PD], the IC50 was 93 nM in [1] (setting [11]); 120 nM in data set [1] (setting [12]); 104 nM in [6] (setting [13]); 170 nM in data set [7] (setting [14]); 181 nM in data set [4] (grey line ref 9); 59 ± 11 nM with P. falciparum strain Dd2. Besides, in data set [9] (setting [15]), the IC50 was 80 nM. Moreover, in data set [8] (50 mg/kg), the “Parasitized RBC over 100” value was 28.2 and 35.8 and 27.8. The “Avg. Mouse Survival” value in data set [8] came to 7.0 days. Besides, in data set [8], the “Parasitized RBC over 100, Avg.” value is on record as 30.60. For the same compound, the “% of Control” value in data set [8] is listed as 51.95%. For the same compound, the “Activity (%)” value in data set [8] (50 mg/kg) is on record as 48.05%; in data set [8] (listed as 6-fluoro–plasmodione, 50 mg/kg) it was 50%. The thermodynamic solubility at 24 h in data set [2] was determined as 0.06 ± 0.01 µM (≈ 0.0209 µg/mL). The CHI in data set [3] came out at 117. Moreover, the chromatographic logD in [3] turned out to be 4.75. For the same compound, the Tox/L6 in data set [5] (grey line ref 9) was 44.7 µM. The “Serum Shift” value in [9] turned out to be 0.9.

Turning to `CC1=C(Cc2ccc(OC(F)(F)F)cc2)C(=O)c2ccccc2C1=O` [A-b-3], the IC50 was 83 nM in [1] (setting [15]); 83 nM in [1] (Plasmodium falciparum, NF54, 72 h, read-out: IC50 NF54 72 h, 0.5% Albumax); 83 nM in data set [1] (Plasmodium falciparum, NF54, 72 h, read-out: IC50 Pf NF54, 72 h); < 100 nM in data set [1] (Plasmodium falciparum, NF54, read-out: IC50 against P. falciparum NF54); 223 nM in data set [6] (Plasmodium falciparum, NF54, 24 h, read-out: IC50 Pf NF54, 24 h); 191 nM in data set [7] (Plasmodium berghei, 24 h, read-out: IC50 Pb, 24 h). In addition, in data set [9] (setting [15]), the IC50 amounted to 473 nM.

Take `CC1=C(Cc2ccc(I)cc2)C(=O)c2ccccc2C1=O` [B-b-13]: the IC50 in [4] (grey line ref 9) is 115 nM. Moreover, the Tox/L6 in [5] (grey line ref 9) is 138.6 µM.

Turning to `C[C@H]1[C@H](OC(=O)CCC(=O)O)O[C@@H]2O[C@@]3(C)CC[C@H]4[C@H](C)CC[C@@H]1[C@@]24OO3` [AS, artesunate, reference compound], the IC50 worked out at 4.8 nM in data set [1] (setting [12]), 13 nM in data set [7] (setting [14]) and 1 nM in [9] (setting [15]).
